Data from publication PMC6136360, “Novel group of tyrosyl-DNA-phosphodiesterase 1 inhibitors based on disaccharide nucleosides as drug prototypes for anti-cancer therapy” (Journal of Enzyme Inhibition and Medicinal Chemistry, 2018).

How the values were obtained:
[1] = system: PARP1; set-up: method as in PMID 24079274; details: cited from earlier work
[2] = molecular target: T1, TDP1 (Homo sapiens, UniProt Q9NUW8); assay: Real-time fluorescence detection of TDP1 activity, single-stranded FAM/BHQ biosensor; assay type: biochemical; details: for Inhibitory effect on TDP1 activity (in words): single-stranded fluorescent biosensor, primary screening
T1 construct: made in house; host or cells: E. coli
T1 sequence (Q9NUW8 whole entry): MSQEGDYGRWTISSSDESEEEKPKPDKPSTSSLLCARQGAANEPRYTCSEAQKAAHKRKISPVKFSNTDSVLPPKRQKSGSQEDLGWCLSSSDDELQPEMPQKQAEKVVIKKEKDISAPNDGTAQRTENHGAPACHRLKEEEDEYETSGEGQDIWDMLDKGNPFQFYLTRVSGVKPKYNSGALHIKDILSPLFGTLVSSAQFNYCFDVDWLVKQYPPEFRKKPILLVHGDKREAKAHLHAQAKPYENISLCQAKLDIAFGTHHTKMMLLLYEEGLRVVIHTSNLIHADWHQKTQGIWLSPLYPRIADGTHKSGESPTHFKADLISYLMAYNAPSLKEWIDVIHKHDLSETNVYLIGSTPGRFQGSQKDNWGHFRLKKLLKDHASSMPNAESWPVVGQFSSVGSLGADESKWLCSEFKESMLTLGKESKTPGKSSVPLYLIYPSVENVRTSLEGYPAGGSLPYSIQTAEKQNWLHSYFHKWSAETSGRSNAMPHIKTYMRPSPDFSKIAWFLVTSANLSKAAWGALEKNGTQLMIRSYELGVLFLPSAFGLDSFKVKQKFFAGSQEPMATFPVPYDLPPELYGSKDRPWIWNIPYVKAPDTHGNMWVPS
Procedure: (§1) Conditions and details for our real-time detection of TDP1 activity using the single-stranded and hairpin fluorescent biosensors were reported in our previous work[47]. Briefly, the approach consists in fluorescence intensity measurement of the reaction of quencher removal from the fluorophore-quencher coupled DNA-oligonucleotide catalysed by TDP1 in the presence of inhibitor and in the absence of it (the control samples contained 1% DMSO). Reaction mixtures (200 µl) contained TDP1 buffer (50 mM Tris-HCl, pH 8.0, 50 mM NaCl, 7 mM β-mercaptoethanol), oligonucleotide (50 nM substrate of TDP1), testable inhibitor and purified TDP1 (1.5 nM). The reactions were incubated at a constant temperature of 26 °C in a POLARstar OPTIMA fluorimeter, BMG LABTECH, GmbH, to measure fluorescence every 55 s (Ex485/Em520 nm) during the linear phase (here data from 0 to 8 min). The average values of half maximal inhibitory concentration (IC50) were determined using an eleven-point concentration response curve in three independent experiments and calculated using MARS Data Analysis 2.0 (BMG LABTECH).
To discover inhibitors of TDP1 we recently developed original single-stranded and hairpin fluorophore–quencher coupled DNA-biosensors for real-time measurement of TDP1 cleavage activity. The single-stranded substrate is a 16-mer oligonucleotide containing both 5′-FAM fluorophore donor and a quenching 3′-BHQ moiety (Figure 1(A)). When the quencher is removed by TDP1, the fluorescence intensity increases and can be measured by fluorimeter (TDP1 catalysed reaction on biosensor is shown in Figure 3(A). Fluorescence intensity declines in the presence of inhibitor, the resulting curves of the dependence of TDP1 residual activity as a function of the concentration of inhibitors were obtained using 4-parameter logistic regression fit, which was used to calculate IC50 values[47]^,[58].
For primary screening, the effect of a large group of disaccharide nucleosides and their hydrophobic derivatives on human recombinant TDP1 activity has been evaluated by fluorescent method on a single-stranded substrate described above.

[3] = molecular target: T1, TDP1; assay: Fluorescence anisotropy assay of TDP1-DNA substrate complex; assay type: binding; details: 3 nM single-strand oligonucleotide without quencher, 50 nM TDP1
Procedure: Fluorescence anisotropy was measured by using a fluorescent single-strand DNA-oligonucleotide (3 nM) without quencher at the 3′-end in the presence of the inhibitor in different concentrations (Fluorescein control, CFlu = 10^−9 M). Reaction mixtures (200 µl) contained TDP1 buffer (50 mM Tris-HCl, pH 8.0, 50 mM NaCl, 7 mM β-mercaptoethanol), a single-strand DNA-oligonucleotide without quencher (3 nM substrate of TDP1), a testable inhibitor and the purified TDP1 (50 nM). The reactions were incubated at a constant temperature of 26 °C in a POLARstar OPTIMA fluorimeter, BMG LABTECH, GmbH, to measure fluorescence anisotropy every 55 s (Ex482/Em530 nm) during the linear phase (from 0 to 8 min) in two independent experiments.
Fluorescence anisotropy (r) was calculated by using the Equation (1): (1) r = (III–I⊥)/(III+ 2I⊥)
The dependence of the anisotropy on the concentration of the inhibitor was determined using a six-point response curve in two independent experiments and calculated using MARS Data Analysis 2.0 (BMG LABTECH).
To obtain some information about interaction of disaccharide nucleosides with TDP1, anisotropy of the fluorescent DNA substrate was measured. We used single-stranded oligonucleotide without a quencher at the 3′-end in the presence of testable inhibitors at different concentrations.

[4] = molecular target: T2, SCAN1 (mutant form of TDP1 with H493R substitution) (Homo sapiens, UniProt Q9NUW8, H493R); assay: Fluorescence real-time assay on mutant TDP1 (SCAN1), single-stranded oligonucleotide; assay type: biochemical
T2 construct: made in house; host or cells: E. coli
T2 sequence (Q9NUW8 whole entry H493R): as the sequence (Q9NUW8 whole entry) above, with H493R counted along it
Source text: The recombinant tyrosyl-DNA phosphodiesterase 1 and the mutant form of TDP1 with substitution (H493R) were expressed in the E. coli system (plasmids pET16B-TDP1 and pET16B-SCAN1 were provided by Dr. K.W. Caldecott, University of Sussex, United Kingdom and by Dr. S. El-Khamisy, University of Sheffield, United Kingdom) and purified according to the previously described technique.
as §1
The IC50 values obtained by the fluorescence real-time assay on a single-stranded oligonucleotide (section 3.1) were higher than 100 μM.

[5] = system: WI-38 cell line (noncancerous fibroblasts derived from lung tissue); assay: MTT test, cytotoxicity and combination with topotecan, WI-38; assay type: cell-based, human; details: WI-38 non-cancerous cell line
Procedure: (§2) Tumour cell line A549 (adenocarcinomic human alveolar basal epithelial cells) and noncancerous cell line WI-38 (fibroblasts derived from lung tissue of a 3 months gestation […] fetus) were used in cell-based experiments to determine the cytotoxicity of inhibitors and their effect on antitumour drug topotecan using standard MTT test[48]. Cells were incubated in Iscove’s Modified Dulbecco’s Medium (IMDM) supplemented with 10% fetal bovine serum and 40 µg/ml gentamicin, 10 U/ml penicillin, […], 0.25 µg/ml amphotericin at 37 °C and 5% CO2 for 24 h in a CO2 incubator; the optical density of the final solution was measured in the wells of the microplate at 570 nm and 620 nm wavelengths using a MultiScan FC (Thermo Scientific) microplate reader.
(§3) To study the effect of inhibitors on the cytotoxic effect of a well-known antitumour drug, the topotecan of the manufacturer “ACTAVIS GROUP PTC ehf.” was used. First of all, the 50% cytotoxic concentration (CC50) for topotecan and each inhibitor were determined to produce a defined single-agent effect. Second, three independent MTT-tests were performed with each inhibitor in combination with topotecan. Then, the synergistic coefficient (SC) was calculated according to the following formula (2)[49]: (2) SC= CC50 tpc,(+I)/CC50 tpc+CC50 I, (+tpc)/CC50 I,
(§4) CC50 tpc,(+I) and CC50 I,(+tpc) are the concentrations of topotecan and inhibitor used in combination to achieve 50% drug effect. CC50 tpc and CC50 I are the concentrations for single agents to achieve the same effect. SC values of less than, equal to, or more than 1 indicates synergy, additivity, and antagonism, respectively. The results were calculated and statistically processed in Microsoft Excel.

[6] = molecular target: T1, TDP1; assay: Steady-state kinetic analysis of TDP1 reaction, single-stranded substrate; assay type: biochemical
Procedure: (§5) To determine the kinetic parameters: apparent maximum rate of enzymatic reaction (Vmax), Michaelis constant (KM), constant of inhibition (KI), and possible inhibition mechanism, steady-state kinetic experiments were carried out at five fixed concentrations of substrate with variation of inhibitor concentrations. The standard reaction mixtures (200 μl) contained 50 nM, 100 nM, 200 nM, 500 nM or 1000 nM substrate, testable inhibitor, 1.5 nM recombinant human TDP1 and reaction buffer components (50 mM Tris-HCl, pH 8.0, 50 mM NaCl, 7 mM β-mercaptoethanol). After addition of the enzyme, the reaction mixtures were incubated at a constant temperature of 26 °C and measured in a POLARstar OPTIMA fluorimeter, BMG LABTECH, GmbH, to measure fluorescence every 55 s (Ex485/Em520 nm) during the linear phase (data from 0 to 8 min). The initial data (kinetic curves) were obtained in three independent experiments and statistically processed in software OriginPro 8.6.0.
Vmax and KM decrease proportionally (Figure 6(A,B)), which corresponds to the uncompetitive type of inhibition, according to the general equation of the rate of product formation in the Michaelis–Menten kinetics.
(§6) Values of the inhibition constant (KI) were determined using Cornish–Bowden method. Similar experiments were performed for all seven tested inhibitors on two types of DNA substrates, and the results are shown in Table 4.

[7] = molecular target: T1, TDP1; assay: Steady-state kinetic analysis of TDP1 reaction, double-stranded (hairpin) substrate; assay type: biochemical
Procedure: as §5, §6

[8] = system: A-549 cell line (adenocarcinomic human alveolar basal epithelial cells); assay: MTT test, cytotoxicity and combination with topotecan, A-549; assay type: cell-based; details: A-549 cells
Procedure: as §2, §3, §4

[9] = Cornish-Bowden method, read-out: Inhibition constant, KI

SMILES | IC50 [1] | Inhibitory effect on TDP1 activity (in words) [2] | Change of fluorescence anisotropy with inhibitor concentration [3] | IC50 [4] | IC50 ([2]; single-stranded fluorescent biosensor 50 nM, TDP1 1.5 nM, 26 °C, read-out: IC50 (half-maximal inhibitory concentration) of TDP1 activity) | Synergy with topotecan (in words) [5] | Type of inhibition [6] | Ki [6, 9] | Type of inhibition [7] | Ki [7, 9] | Synergistic coefficient (SC) with topotecan ([8]; MTT, inhibitor in combination with topotecan, SC < 1 indicates synergy) | Effect on cytotoxic effect of topotecan (in words) ([8]; non-toxic inhibitor concentrations)
Cc1cn([C@H]2C[C@H](O[C@@H]3O[C@H](CO)[C@@H](O)[C@H]3O)[C@@H](CO)O2)c(=O)[nH]c1=O [Compound 24] | 38000 ± 4000 nM | not inhibited | – | – | – | – | – | – | – | – | – | –
Cc1cn([C@H]2C[C@H](O[C@@H](C=O)O[C@@H](C=O)CO)[C@@H](CO)O2)c(=O)[nH]c1=O [Compound 29] | 25000 ± 3000 nM | did not lead to the noticeable inhibitory activity | – | – | – | – | – | – | – | – | – | –
O=C(OC[C@H]1O[C@@H](O[C@H]2C[C@H](n3cc(I)c(=O)[nH]c3=O)O[C@@H]2CO)[C@H](OC(=O)c2ccccc2)[C@@H]1OC(=O)c1ccccc1)c1ccccc1 [Compound 41] | – | – | anisotropy remained unchanged | > 100000 nM | 2800 ± 200 nM | demonstrated synergy with topotecan | Uncompetitive | 600 ± 300 nM | Uncompetitive | 2100 ± 500 nM | less than or equal to 0.7 | significant increase of cytotoxic effect of topotecan
